In the test the target is T1, Nuclear factor erythroid 2-related factor 2 (Mus musculus) (UniProt Q60795).
T1 sequence (whole entry): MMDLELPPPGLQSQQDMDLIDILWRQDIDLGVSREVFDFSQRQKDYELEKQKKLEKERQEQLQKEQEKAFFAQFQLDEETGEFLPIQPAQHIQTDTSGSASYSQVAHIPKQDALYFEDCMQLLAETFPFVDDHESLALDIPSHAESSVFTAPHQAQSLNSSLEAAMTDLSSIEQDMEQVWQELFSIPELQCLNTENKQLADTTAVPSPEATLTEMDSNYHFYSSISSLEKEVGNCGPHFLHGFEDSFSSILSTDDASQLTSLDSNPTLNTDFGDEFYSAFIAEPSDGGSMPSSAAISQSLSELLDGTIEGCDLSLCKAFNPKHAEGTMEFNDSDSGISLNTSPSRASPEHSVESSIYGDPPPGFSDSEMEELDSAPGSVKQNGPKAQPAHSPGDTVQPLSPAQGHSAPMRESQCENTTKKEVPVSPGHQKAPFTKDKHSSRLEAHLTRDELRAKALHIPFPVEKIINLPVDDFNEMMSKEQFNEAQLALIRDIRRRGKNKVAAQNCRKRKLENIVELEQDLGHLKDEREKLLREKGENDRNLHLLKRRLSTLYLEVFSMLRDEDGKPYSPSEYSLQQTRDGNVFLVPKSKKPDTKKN
Description: Activation of Nrf2 in mouse Hepa-1c1c7 cells assessed as concentration required to double specific activity of NQO1 incubated for 48 hrs. Format: cell-based.

Molecules are shown by their SMILES.

Regarding `CC[C@]12C=C(C#N)C(=O)C=C1[C@@]1(C)C=C(C#N)C(=O)C(C)(C)[C@@H]1CC2`, the pCD stood at 7.74.
In the case of `CC1(C)C=CC(=O)C(C#N)=C1` it was 6.82; in that of `CC#C[C@]12C=C(C#N)C(=O)C=C1[C@@]1(C)C=C(C#N)C(=O)C(C)(C)[C@@H]1CC2`, 8.12; in that of `C#CC1(C=C)C=CC(=O)C(C#N)=C1` (configuration not stated), 7.7.
In the case of `C#CC1(C)C=C(C#N)C(=O)CC1` (configuration not stated) it was 7; in that of `C#CC12C=C(C#N)C(=O)C=C1C(C)(C)CC2` (configuration not stated), 7; in that of `C#CC1(C#C)C=CC(=O)C(C#N)=C1`, 6.74.
In the case of `C#CC1(C)C=CC(=O)C(C#N)=C1` (configuration not stated) it was 7.67; in that of `C=C[C@]12C=C(C#N)C(=O)C=C1[C@@]1(C)C=C(C#N)C(=O)C(C)(C)[C@@H]1CC2`, 7.52.
As for `CC#CC1(C)C=CC(=O)C(C#N)=C1` (configuration not stated), the pCD turned out to be 7.48.
For `C#C[C@]12C=C(C#N)C(=O)C=C1[C@@]1(C)C=C(C#N)C(=O)C(C)(C)[C@@H]1CC2`, the pCD amounted to 9.04.
With `C#CC1(CC)C=CC(=O)C(C#N)=C1` (configuration not stated), the pCD came out at 7.38.
Turning to `C=CC1(C)C=CC(=O)C(C#N)=C1` (configuration not stated), the pCD amounted to 6.82.
In the case of `C#CC12C=C(C#N)C(=O)C=C1CCC2` (configuration not stated) it was 7.25; in that of `CC1(C)C=C(C#N)C(=O)C(C)(C)C1`, 5.72; in that of `CC1(C)C(=O)C(C#N)=C[C@]2(C)C3=CC(=O)C=C[C@]3(C)CC[C@@H]12`, 6.8.
To `CC1(C)C(=O)C(C#N)=C[C@]2(C)C3=CC(=O)C(C#N)=C[C@]3(C)CC[C@@H]12` belongs 7.74.

The record behind these values is ChEMBL document CHEMBL4477240, “Electron affinity of tricyclic, bicyclic, and monocyclic compounds containing cyanoenones correlates with their potency as inducers of a cytoprotective enzyme” (Bioorg Med Chem Lett, 2016).
